Assay results published in patent US9944721B2, “Polysialic acid and use for treatment of neurodegenerative and neuroinflammatory diseases” (RHEINISCHE FRIEDRICH-WILHELMS UNIVERSITÄT BONN, priority 2013, dated 2018).

Legend:
Assay type in all cases: cell-based
human microglia = assay: Microglial phagocytosis of fluorescently labeled neural debris; conditions: 1 hour pre-incubation, untreated 32%+/−0.02
Protocol: The human microglia were challenged with fluorescently labeled neural debris and the uptake of the debris into the cells was determined by confocal microscopy and 3D-reconstruction.
To receive debris, neural stem cells were incubated with 40 nM okadaic acid (Sigma) for 24 hours. Then, cellular debris was collected and centrifuged. Debris was washed with PBS and stained with “Dil Derivatives for Long-Term Cellular Labeling” Molecular Probes (Invitrogen) according to the supplier's manual. Microglial cells were pre-incubated for 1 hour with concentration of 0.15 μM, 0.5 μM or 1.5 μM PSA-20 followed by 1 hour of incubation with 5 μg/ml prestained neural debris. Cells were fixed and incubated with an anti-iba1 antibody (Wako, Japan) followed by a secondary Alexa488-conjugated antibody (Molecular probes). For analysis images were randomly scanned and 3D-reconstructions were obtained by a confocal laser scanning microscope (Fluoview 1000, Olympus). To determine the ratio of cells having ingested fluorescently labeled material, six images per experiment group were obtained and all cells on the images were quantified using Image J software (NIH).

[1] = system: human neurons co-cultured with LPS-pre-activated human microglia; assay: LPS-toxin induced microglia-neuron co-culture Parkinson's disease model (neurite length); conditions: 1.5 μM, 48 hours, without PSA-20 0.64+/−0.01, FIG. 9A
Protocol: Human induced pluripotent stem cell-derived microglia (iPSdM) were obtained from induced pluripotent stem (iPS) cells. The microglial iPSdM line 1 (iPSdM-1) was used in this study generated from the iLB-C-35m-r1 clone (Bonn). iPSdM-1 (here named microglia or microglial cells) were cultured in N2-medium consisting of DMEM/F12 culture medium (Gibco) supplemented with 1% N2 (Invitrogen), 0.48 mM L-glutamine (Gibco) and 100 μg/ml penicillin/streptomycin (Gibco). Human induced pluripotent stem (iPS) cells (Foreskin-1, WiCell) were used for the generation of primitive neural stem cell (pNSC) and their differentiation into neurons according to a modified protocol, which was used to obtain primitive neural precursors from human embryonic stem cells. Briefly, iPS cells were cultured on feeder cells to form small colonies. […]
10 pictures per condition per experiment were taken by confocal laser scanning microscopy (Fluoview 1000, Olympus). Measurement of neuronal branches was done by ImageJ/Neuron J software (NIH) and relative neural branches lengths were quantified. […]

[2] = system: LPS-activated human microglia; assay: LPS-induced TNF-alpha gene transcription in human microglia (qRT-PCR); conditions: LPS 1 μg/ml, 24 hours
Protocol: To analyse whether polysialic acid might interfere with a pro-inflammatory phenotype of human microglia, cultured human microglia were activated with lipopolysaccharides (LPS) and the effect of the distinct sialic acid forms including fractions of oligosialic and polysialic acid on the gene transcription of the pro-inflammatory cytokine tumor necrosis factor-alpha induced by the bacterial toxin LPS was determined. A human microglial line derived from induced pluripotent stem cells as described in WO 2010/125110 was used to study the effect of sialic acid forms with different chain length. Human microglial cells were cultured on 5 μg/ml poly-L-lysin (PLL, Sigma)-coated dishes in N2-medium containing DMEM/F12 culture medium (Gibco) supplemented with 1% N2 (Invitrogen), 0.48 mM L-glutamine (Gibco) and optionally 100 μg/ml penicillin/streptomycin (Gibco). Cells were cultured with high density and splitted 1:2 when required. The human induced pluripotent stem cell derived microglia line was treated with lipopolysaccharides (LPS, 1 μg/ml, Invivogen) and sialic acid forms with different chain length for 24 hours. Gene transcripts for tumor necrosis factor-α (TNF-alpha) were determined by quantitative RT-PCR and normalized to GAPDH. In detail, RNA isolation was performed using RNeasy Mini Kit (Qiagen) and transcription with the SuperScript First-Strand Synthesis System (Invitrogen). Quantitative RT-PCR with specific oligonucleotides (GAPDH: […] (SEQ ID NO: 1) and […] (SEQ ID NO: 2); TNFα: […] (SEQ ID NO: 3) and […] (SEQ ID NO: 4)) was performed using SYBR green PCR Master Mix with the Mastercycler epgradients S (Eppendorf). Results were normalized to GAPDH. Quantification using the delta-CT method was carried out.

poly-(α(2→8)Neu5Ac)n [PSA-20]
percentage of microglia having ingested neural debris (human microglia; 0.5 μM): 25%+/−0.02
percentage of microglia having ingested neural debris (human microglia; 1.5 μM): 22%+/−0.01
relative neurite length [1]: 0.91+/−0.02
LPS-induced gene transcription of TNF-alpha ([2]; 0.15 μM, 0.5 μM and 1.5 μM, FIG. 3): reduced
Anti-inflammatory effect on TNF-alpha of LPS-activated human microglia ([2]; summary of Example 4): Yes
